How the values were obtained:
[1] = target: human glucagon receptor (GcgR) (Homo sapiens, UniProt P47871); assay: Human glucagon receptor activation (Table 1); format: cell-based; details: read-out: EC50 (nM) hGcgR
[2] = tested on: diet-induced obese (DIO) mice; assay: Weight-lowering and metabolic pharmacology in diet-induced obese mice on HFHSD; format: in vivo; details: for effect on body weight: DIO mice on HFHSD, equimolar doses, daily s.c. (FIG. 5A); for food intake: DIO mice (FIG. 5C)
Experimental: (§1) For pharmacology studies on energy metabolism in obese mice (DIO mice), male C57Bl/6j mice (Jackson Laboratories) were fed a diabetogenic diet (Research Diets D12331), which is a high-sucrose diet with 58% kcal from fat 25.5% kcal from carbohydrates, and 16.4% kcal from protein. Dietary challenges began at 8 weeks of age. HFHSD mice were single- or group-housed on a 12:12-h light-dark cycle at 22° C. with free access to food and water. Mice were maintained under these conditions for a minimum of 16 weeks before initiation of pharmacological studies and were between the ages of 6 months to 12 months old. All injections and tests were performed during the light cycle. Compounds were administered in a vehicle of 1% Tween-80 and 1% DMSO and were given by daily subcutaneous injections at the indicated doses at a volume of 5 μl per g body weight. Mice were randomized and evenly distributed to test groups according to body weight and body composition. If ex vivo molecular biology/histology/biochemistry analyses were performed, the entire group of mice for each treatment was analyzed and scored in a blinded fashion.
Compounds were administered by repeated subcutaneous injections in the middle of the light phase at the indicated doses with the indicated durations. Co-administration of compounds was administered by single formulated injections. Body weights and food intake were measured every day or every other day after the first injection. All studies with wild-type mice were performed with a group size of n=8 or greater using mice on a C57B16j background.
For assessment of intraperitoneal glucose tolerance during chronic treatment, the challenge tests were performed at least 24 hours after the last administration of compounds. The investigators were not blinded to group allocation during the in vivo experiments or to the assessment of longitudinal endpoints. All rodent studies were approved by and performed according to the guidelines of the Institutional Animal Care and Use Committee of the Helmholtz Center Munich, University of Cincinnati, Universite de Lyon, and in accordance with guidelines of the Association for the Assessment and Accreditation of Laboratory and Animal Care (AAALAC # Unit Number: 001057) and appropriate federal, state and local guidelines, respectively.
Whole-body composition (fat and lean mass) was measured using nuclear magnetic resonance technology (EchoMRI).

[3] = tested on: diet-induced obese (DIO) mice; assay: Heart weight / cardiac hypertrophy in DIO mice; details: mouse, in vivo
Experimental: For pharmacology studies on energy metabolism in obese mice (DIO mice), male C57Bl/6j mice (Jackson Laboratories) were fed a diabetogenic diet (Research Diets D12331), which is a high-sucrose diet with 58% kcal from fat 25.5% kcal from carbohydrates, and 16.4% kcal from protein. Dietary challenges began at 8 weeks of age. HFHSD mice were single- or group-housed on a 12:12-h light-dark cycle at 22° C. with free access to food and water. Mice were maintained under these conditions for a minimum of 16 weeks before initiation of pharmacological studies and were between the ages of 6 months to 12 months old. All injections and tests were performed during the light cycle. Compounds were administered in a vehicle of 1% Tween-80 and 1% DMSO and were given by daily subcutaneous injections at the indicated doses at a volume of 5 μl per g body weight. Mice were randomized and evenly distributed to test groups according to body weight and body composition. If ex vivo molecular biology/histology/biochemistry analyses were performed, the entire group of mice for each treatment was analyzed and scored in a blinded fashion. Compounds were administered by repeated subcutaneous injections in the middle of the light phase at the indicated doses with the indicated durations. […] Body weights and food intake were measured every day or every other day after the first injection. […]

[4] = tested on: diet-induced obese (DIO) mice; assay: Indirect calorimetry in DIO mice (energy expenditure, RER, home-cage activity, food intake); format: in vivo
Experimental: as §1, with “fashion. Energy intake, energy expenditure, respiratory exchange ratio, and home-cage activity were assessed using a combined indirect calorimetry system (TSE Systems). O2 consumption and CO2 production were measured every 10 min for a total of up to 160 h (after 24 h of adaptation) to determine the respiratory quotient and energy expenditure after an initial treatment regimen. Food intake was determined continuously for the same time as the indirect calorimetry assessments by integration of scales into the sealed cage environment. Home-cage locomotor activity was determined using a multidimensional infrared light beam system with beams scanning the bottom and top levels of the cage, and activity being expressed as beam breaks.” for “fashion.”

CC[C@H](C)[C@H](NC(=O)[C@H](Cc1ccccc1)NC(=O)[C@H](CCC(=O)O)NC(=O)[C@H](CCCCN)NC(=O)[C@H](C)NC(=O)[C@H](C)NC(=O)[C@H](CCC(N)=O)NC(=O)[C@H](CCC(=O)O)NC(=O)[C@H](CCC(=O)O)NC(=O)[C@H](CC(C)C)NC(=O)[C@H](Cc1ccc(O)cc1)NC(=O)[C@H](CO)NC(=O)[C@H](CO)NC(=O)[C@@H](NC(=O)[C@H](CC(=O)O)NC(=O)[C@H](CO)NC(=O)[C@@H](NC(=O)[C@H](Cc1ccccc1)NC(=O)[C@@H](NC(=O)CNC(=O)[C@H](CCC(=O)O)NC(=O)C(C)(C)NC(=O)[C@@H](N)Cc1c[nH]cn1)[C@@H](C)O)[C@@H](C)O)C(C)C)C(=O)N[C@@H](C)C(=O)N[C@@H](Cc1c[nH]c2ccccc12)C(=O)N[C@@H](CC(C)C)C(=O)N[C@H](C(=O)N[C@@H](CCCCN)C(=O)NCC(=O)NCC(=O)N1CCC[C@H]1C(=O)N[C@@H](CO)C(=O)N[C@@H](CO)C(=O)NCC(=O)N[C@@H](C)C(=O)N1CCC[C@H]1C(=O)N1CCC[C@H]1C(=O)N1CCC[C@H]1C(=O)N[C@@H](CO)C(=O)N[C@@H](CCCCN)C(N)=O)C(C)C [IUB48]
EC50 [1]: > 100 nM
effect on body weight [2]: minimal impact on body weight

CC[C@H](C)[C@H](NC(=O)[C@H](Cc1ccccc1)NC(=O)[C@H](CCC(=O)O)NC(=O)[C@H](CCCCN)NC(=O)[C@H](C)NC(=O)[C@H](C)NC(=O)[C@H](CCC(N)=O)NC(=O)[C@H](CCC(=O)O)NC(=O)[C@H](CCC(=O)O)NC(=O)[C@H](CC(C)C)NC(=O)[C@H](Cc1ccc(O)cc1)NC(=O)[C@H](CO)NC(=O)[C@H](CO)NC(=O)[C@@H](NC(=O)[C@H](CC(=O)O)NC(=O)[C@H](CO)NC(=O)[C@@H](NC(=O)[C@H](Cc1ccccc1)NC(=O)[C@@H](NC(=O)CNC(=O)[C@H](CCC(=O)O)NC(=O)C(C)(C)NC(=O)[C@@H](N)Cc1c[nH]cn1)[C@@H](C)O)[C@@H](C)O)C(C)C)C(=O)N[C@@H](C)C(=O)N[C@@H](Cc1c[nH]c2ccccc12)C(=O)N[C@@H](CC(C)C)C(=O)N[C@H](C(=O)N[C@@H](CCCCN)C(=O)NCC(=O)NCC(=O)N1CCC[C@H]1C(=O)N[C@@H](CO)C(=O)N[C@@H](CO)C(=O)NCC(=O)N[C@@H](C)C(=O)N1CCC[C@H]1C(=O)N1CCC[C@H]1C(=O)N1CCC[C@H]1C(=O)N[C@@H](CO)C(=O)N[C@@H](CCCCNC(=O)CC[C@H](NC(=O)[C@@H](N)Cc1cc(I)c(Oc2ccc(O)c(I)c2)c(I)c1)C(=O)O)C(N)=O)C(C)C [IUB686, IUB48-(gE-T3-NH2)-amide]
heart weight / cardiac hypertrophy [3]: did not increase raw heart weight
EC50 [1]: > 100 nM

CC[C@H](C)[C@H](NC(=O)[C@H](Cc1ccccc1)NC(=O)[C@H](CCC(=O)O)NC(=O)[C@H](CCCCN)NC(=O)[C@H](C)NC(=O)[C@H](C)NC(=O)[C@H](CCC(N)=O)NC(=O)[C@H](CCC(=O)O)NC(=O)[C@H](CCC(=O)O)NC(=O)[C@H](CC(C)C)NC(=O)[C@H](Cc1ccc(O)cc1)NC(=O)[C@H](CO)NC(=O)[C@H](CO)NC(=O)[C@@H](NC(=O)[C@H](CC(=O)O)NC(=O)[C@H](CO)NC(=O)[C@@H](NC(=O)[C@H](Cc1ccccc1)NC(=O)[C@@H](NC(=O)CNC(=O)[C@H](CCC(=O)O)NC(=O)C(C)(C)NC(=O)[C@@H](N)Cc1c[nH]cn1)[C@@H](C)O)[C@@H](C)O)C(C)C)C(=O)N[C@@H](C)C(=O)N[C@@H](Cc1c[nH]c2ccccc12)C(=O)N[C@@H](CC(C)C)C(=O)N[C@H](C(=O)N[C@@H](CCCCN)C(=O)NCC(=O)NCC(=O)N1CCC[C@H]1C(=O)N[C@@H](CO)C(=O)N[C@@H](CO)C(=O)NCC(=O)N[C@@H](C)C(=O)N1CCC[C@H]1C(=O)N1CCC[C@H]1C(=O)N1CCC[C@H]1C(=O)N[C@@H](CO)C(=O)N[C@@H](CCCCNC(=O)CCC(=O)N[C@@H](Cc1cc(I)c(Oc2ccc(O)c(I)c2)c(I)c1)C(=O)O)C(N)=O)C(C)C [IUB687, IUB48-(Suc-T3-OH)-amide]
EC50 [1]: > 100 nM
food intake [2]: no reductions in food intake
effect on body weight [2]: significantly lowered body weight in a dose-dependent manner
absolute decrease in body weight from baseline ([2]; DIO mice, 100 nmoles/kg, daily subcutaneous treatment, after a week (FIG. 5A)): 11%

N[C@@H](Cc1cc(I)c(Oc2ccc(O)c(I)c2)c(I)c1)C(=O)O [Peptide T3, Triiodothyronine]
food intake during calorimetry ([4]; DIO mice (FIG. 6D)): hyperphagia
body weight loss during calorimetry study ([4]; DIO mice (FIG. 6E)): less body weight loss
home cage / ambulatory activity ([4]; DIO mice (FIG. 6F)): significantly increased home cage activity
whole-body energy expenditure ([4]; DIO mice, indirect calorimetry (FIG. 6C)): substantially increased whole-body energy expenditure
food intake [2]: increased
effect on body weight [2]: minimal impact on body weight
glucose tolerance ([2]; DIO mice, higher dose, equimolar (FIG. 5D)): improved glycemic control

Reference: patent US20190290772A1 (published 2019)
